Experimental data published in patent EP1487791B1, “A NOVEL ANTIFUNGAL MOLECULE 2-(3,4-DIMETHYL-2,5-DIHYDRO-1H-PYRROL-2-YL)- METHYLETHYL PENTANOATE” (priority 2002, dated 2003).

Assays:
RAW cells = type: cell-based
Description: The in vitro toxicity of the active molecule was studied by MTT assay using RAW cells (Mossman, T., 1983, J. Immunol. Methods, 65, 55-63).
The stock culture of RAW cells was obtained from National Facility for Cell and Tissue Culture, Pune. Cells were maintained in RPMI - 1640 medium supplemented with glutamine (2.3 gm/L), fetal calf serum (10% v/v) and gentamycin (50.0 mg/L) at 37°C in Nuair IR Autoflow water Jacketed carbon dioxide incubator.
The stock solution of the compound was prepared by dissolving 2.5 mg of the purified compound in minimum amount of DMSO and then diluted with double distilled water to make the final volume 1.0-ml. The different concentrations ranging from 1250.0 µg/ml to 19.5 µg/ml were tested in the cytotoxicity assay.
The cells were harvested at the log phase of growth confluency from the flask. The homogeneous suspension of cells was prepared in 2.0 ml of culture medium. The number of cells in the suspension was counted using a hemocytometer and the cell suspension was diluted in such a way so as to obtain 5x10^7 viable cells per ml. The viability of the cells was checked with trypan blue dye exclusion test. The cytotoxicity assay was performed in 96 wells flat bottom tissue culture plates (Nunc Nunclon). The cells ([…]) in 100.0 µl volume were seeded into each well. The plate was incubated at 37 °C in atmosphere of 5% (v/v) CO2 for 8 h. The wells were examined microscopically for the formation of monolayer of the cells. Various concentrations ranging from 1250.0 µg/ml to 19.5 µg/ml of the compound PC-1 (metelatropinyl ester) were added to the monolayer of cells. In +ve control wells, a known cytotoxic protein obtained from A. fumigatus, was used. […] After lysis of the cells, the plates were read at 540 nm using plate reader (Spectra Max 190, Molecular Device).
The toxicity of the compound was expressed as percentage with respect to that obtained in -ve control sample. The percent cytotoxicity was calculated using the formula given below. % Cytotoxicity = (OD in-ve control-OD in the test)/(OD in-ve control) × 100 [formula] […]

A. fumigatus = assay: In vivo efficacy, survival in mice model of aspergillosis; parameters: species or system Balb/C mice; settings: oral; probit of percent survival against log dose
Excerpt: In vivo efficacy of the compound against A. fumigatus infection was studied in the Balb/C mice of 6-8 weak of age of either sex, weighing 15-20 g each. The mice model of aspergillosis described by Dixon et al (1989), was used to study the effects of compound on in vivo infection of A. fumigatus.
The animals were housed in the micro-barrier cages on sterile bedding and fed ad libitum water and food. The mice were divided into 6 groups and each group contained 8-10 animals. The mice were infected experimentally with A. fumigatus. Three days prior to infection with conidia, mice were injected subcutaneously with 3 doses (250.0 mg/kg/day) of cortisone acetate in 400.0 µl of PBS. On the infection day, each mouse received 2x10^7 conidia by nasal instillation of a single droplet of conidial suspension. […]
A. fumigatus (190/96) isolate was grown on Sabouraud dextrose agar plates at 37 °C for 4 days. […] The number of conidia, was counted and adjusted to 1x10^8 conidia/ml. The viability of the conidia was determined by plating the dilutions of suspensions on Sabouraud dextrose agar. […]
The animals were housed in properly labeled cages and kept under close watch for weight loss and the mortality. The survival rate over a period of 10 days was calculated and the fungal burden in survivors determined (Clemons and Stevens, 1994). […]

For `CCCCC(=O)OC(C)CC1NCC(C)=C1C` (stereo not shown) [PC-1, 2-(3,4-dimethyl-2,5-dihydro-1H-pyrrol-2-yl)-1-methylethyl pentanoate], the “concentration completely non-toxic to the cells” value (RAW cells) was “up to 312.5 µg/ml”, the “CT50 (dose cytotoxic to 50% of the cells)” value (RAW cells; RAW cells, MTT, 12 h) was 889.2 µg/mL and the “less cytotoxic than the standard antifungal drug such as Amphotericin B” value (RAW cells; comparison with Amphotericin B) was 57.8 times. For the same compound, the “ED50 (effective dose required to confer protection in 50% of the animals)” value (A. fumigatus) was 167.0 mg/kg body weight.
